The subject of one assay is Notch signaling (hNotch1ΔE, human Notch1 receptor) in HeLa cells. Briefly: Notch reporter assay (luciferase luminescence readout in transfected HeLa cells). Particulars: 10 μM, 20 hours, relative to DMSO baseline level of 1.0. Format: cell-based. The protocol: An according Notch-reporter assay, i.e. a luciferase-based luminescence readout, was used here to quantify the ability of the claimed small molecules to augment Notch signaling in a cellular system. For this purpose, HeLa cells, obtainable from the American Type Culture Collection (ATCC) under the accession number ATCC-CCL-2, were transiently transfected for 24 hours using FuGENE® HD (Promega, #E2311) as transfection reagent with expression vectors of a membrane-tethered form of the constitutively active intracellular domain of the human Notch1 receptor (hNotch1ΔE) to activate the signaling cascade (BPS Bioscience, human analogue to Notch Pathway Reporter Kit #60509 component C), a Firefly luciferase being expressed under the control of a Notch-responsive promoter to monitor Notch signaling (BPS Bioscience, Notch Pathway Reporter Kit #60509, CSL luciferase reporter vector from component A not premixed with Renilla luciferase vector), and a Renilla luciferase being constitutively expressed in a Notch signaling independent manner to include a measure for the cell number per sample (Promega, pRL-SV40, #E2231). HeLa cells were cultivated according to the protocol of the provider in DMEM medium (Fisherscientific, #11584456) containing 10% fetal bovine serum (Fisherscientific, #15517589). The transfection was carried out in a 100 mm-culture dish (StarLab, #CC7682-3394) with cells being properly attached to the plate at a cell confluency of 80-90% in a total volume of 7 mL culture medium. Per dish to be transfected, a transfection mix was prepared by adding to 238 μL Opti-MEM (Fisherscientific, #10149832) 40 μL of the hNotch1ΔE expression vector (100 ng/μL), 80 μL of the CSL luciferase reporter vector (40 ng/μL), 4 μL of the pRL-SV40-Renilla luciferase vector (10 ng/μL), and in the last step 18.1 μL of FuGENE® HD. After addition of FuGENE® HD the transfection mix was let stand for 15 min at room temperature and hereafter equally distributed into the culture dish. Subsequently, i.e. after 24 hours of transfection, the transfected cells (10.000 cells per well) were incubated with the test-compounds at a final concentration of 10 μM (diluted from 10 mM stock-solutions in DMSO to a final DMSO concentration of 0.1% v/v) or with the empty carrier DMSO at 0.1% v/v as control for 20 hours in 96-well plates suitable for luminescence readouts (CORNING, #3610). Hereafter, the cells were lysed with 30 μL per well of Passive Lysis Buffer (Promega, #E194A, component of Dual-Luciferase® Reporter Assay System, #E1910) and the Firefly as well as Renilla luciferase values were measured with a luminescence reader with applying 15 μL per well each of the corresponding enzyme substrates needed to create the luminescence signals (Promega, Dual-Luciferase® Reporter Assay System, #E1910).
The suitability of the assays for monitoring Notch signaling was controlled by additionally including a generally accepted commercial Notch inhibitor, i.e. DAPT, as negative control, as well as the reported Notch enhancer resveratrol (RES) as positive control (Pinchot et al., Cancer 2011, 117, 1386-1398; Truong et al., Ann. Surg. Oncol. 2011, 18, 1506-1511; Yu et al., Mol. Cancer Ther. 2013, 12, 1276-1287). Both control compounds were likewise tested at 10 μM.
Per single experiment the measurement was performed in six replicates per compound. For every compound, this experiment was repeated in three or more independent replicates. The values of the Notch-reporter luciferase were normalized by division through the corresponding individual Notch-independent Renilla values in order to eliminate the impact of variation in the absolute cell-numbers in between the samples. For every individual plate, a second normalization was performed against the equally weighted arithmetic mean (here abbreviated as AVE) of the six associated Renilla-normalized DMSO-control values within a single experiment in order to obtain the relative values to a baseline level of 1.0. […]
A general note: In a reporter assay the amount or activity of a reporter protein is the signal.
In the case of `C[C@H](NC(=O)Cc1cc(F)cc(F)c1)C(=O)N[C@H](C(=O)OC(C)(C)C)c1ccccc1` [DAPT, reference compound], the “AVEw, weighted arithmetic mean of double-normalized Notch-reporter luciferase luminescence values (Activity Range)” value amounted to 0.1 ± 0.0.

Staying with this assay, now noted: Homo sapiens, 20 hours, relative to DMSO baseline level of 1.0, read-out: AVEw, weighted arithmetic mean of double-normalized Notch-reporter luciferase luminescence values (Activity Range).
In the case of `CCCc1ccc(Oc2ccc(C(=O)O)cc2)cc1` [Compound 003, 4-(4-propylphenoxy)benzoic acid], the fold induction at 10 µM was in the range of 1.7 to 2. Still for that read-out and setting: the value for `CCCCc1ccc(Oc2ccc(C(=O)O)cc2)cc1` [Compound 004, 4-(4-butylphenoxy)benzoic acid] was 1.4 to 1.7.

In the case of `CCCCCc1ccc(Oc2ccc(C(=O)O)cc2)cc1` [Compound 005, 4-(4-Pentylphenoxy)benzoic acid], the fold induction at 10 µM lay in the range of 1.7 to 2.

As for `CC(C)c1ccc(Oc2ccc(C(=O)O)cc2)cc1` [Compound 007, 4-(4-isopropylphenoxy)benzoic acid], the fold induction at 10 µM lay within 1.2 to 1.3. On the same count and under the same terms, then `O=C(O)c1ccc(Oc2ccc(C3C[C@@H]4CC[C@H]3C4)cc2)cc1` (stereo partly drawn) [Compound 019, 4-(4-((1S,4R)-bicyclo[2.2.1]heptan-2-yl)phenoxy)benzoic acid], with 1.2 to 1.3; and `CCCc1ccc(Oc2ccc(C(=O)OC)cc2)cc1` [Compound 025, methyl 4-(4-propylphenoxy)benzoate], with 1.2 to 1.3.

Take `CCCCc1ccc(Oc2ccc(C(=O)OC)cc2)cc1` [Compound 026, methyl 4-(4-butylphenoxy)benzoate]: the fold induction at 10 µM is 1.4 to 1.7. Still for that read-out and setting: then `CCCCCc1ccc(Oc2ccc(C(=O)OC)cc2)cc1` [Compound 027, methyl 4-(4-pentylphenoxy)benzoate], with 1.7 to 2. For the compound `CCCc1ccc(Oc2ccc(C(=O)OCC)cc2)cc1` [Compound 050, ethyl 4-(4-propylphenoxy)benzoate], the fold induction at 10 µM fell in the range of 1.4 to 1.7.

Consider `CCCCc1ccc(Oc2ccc(C(=O)OCC)cc2)cc1` [Compound 051, Ethyl 4-(4-butylphenoxy)benzoate], for which the fold induction at 10 µM lay in the range of 1.7 to 2. For the compound `CCCCCc1ccc(Oc2ccc(C(=O)OCC)cc2)cc1` [Compound 052, ethyl 4-(4-pentylphenoxy)benzoate], the fold induction at 10 µM lay within 1.4 to 1.7. For `CCCc1ccc(Oc2ccc(C(=O)O)cn2)cc1` [Compound 071, 6-(4-Propylphenoxy)nicotinic acid], the fold induction at 10 µM was 1.4 to 1.7. For the compound `COC(=O)c1ccc(Oc2ccc(C)cc2)nc1` [Compound 091, methyl 6-(p-tolyloxy)nicotinate], the fold induction at 10 µM lay within 1.2 to 1.3. On to `COC(=O)c1ccc(Oc2ccc(C34CC5CC(CC(C5)C3)C4)cc2)nc1` [Compound 114, Methyl 6-(4-(adamantan-1-yl)phenoxy)nicotinate], for which the fold induction at 10 µM lay in the range of 1.7 to 2. As to `CCOC(=O)c1ccc(Oc2ccc(CC)cc2)nc1` [Compound 117, Ethyl 6-(4-Ethylphenoxy)nicotinate], the fold induction at 10 µM was 1.4 to 1.7. On the same count and under the same terms, the value for `CCCc1ccc(Oc2ccc(C(=O)OCC)cn2)cc1` [Compound 118, ethyl 6-(4-propylphenoxy)nicotinate] was 1.1 to 1.2; that for `CCCCCc1ccc(Oc2ccc(C(=O)OCC)cn2)cc1` [Compound 120, ethyl 6-(4-pentylphenoxy)nicotinate] was 1.4 to 1.7; that for `CCOC(=O)c1ccc(Oc2ccc(C(C)C)cc2)nc1` [Compound 122, ethyl 6-(4-isopropylphenoxy)nicotinate] was 1.3 to 1.4. The same measure, in the same setting: the value for `CNC(=O)c1ccc(Oc2ccc(C)cc2)cc1` [Compound 189, N-methyl-4-(p-tolyloxy)benzamide] was 1.1 to 1.2. As for `CNC(=O)c1ccc(Oc2ccc(C(C)C)cc2)cc1` [Compound 195, 4-(4-Isopropylphenoxy)-N-methylbenzamide], the fold induction at 10 µM fell in the range of 1.2 to 1.3.

In the case of `CN(C)C(=O)c1ccc(Oc2ccc(C3CCCCC3)cc2)cc1` [Compound 234, 4-(4-cyclohexylphenoxy)-N,N-dimethylbenzamide], the fold induction at 10 µM lay in the range of 1.1 to 1.2. Still for that read-out and setting: then `Cc1ccc(Oc2ccc(C(N)=O)cn2)cc1` [Compound 241, 6-(p-Tolyloxy)nicotinamide], with 1.2 to 1.3; and `CCc1ccc(Oc2ccc(C(N)=O)cn2)cc1` [Compound 242, 6-(4-ethylphenoxy)nicotinamide], with 1.2 to 1.3. As to `CC(C)c1ccc(Oc2ccc(C(N)=O)cn2)cc1` [Compound 247, 6-(4-isopropylphenoxy)nicotinamide], the fold induction at 10 µM fell in the range of 1.2 to 1.3. With `CNC(=O)c1ccc(Oc2ccc(C)cc2)nc1` [Compound 291, N-methyl-6-(p-tolyloxy)nicotinamide], the fold induction at 10 µM lay within 1.4 to 1.7. In the case of `CCc1ccc(Oc2ccc(C(=O)NC)cn2)cc1` [Compound 292, 6-(4-ethylphenoxy)-N-mtehylnicotinamide], the fold induction at 10 µM was in the range of 1.3 to 1.4.

As for `CNC(=O)c1ccc(Oc2ccc(C(C)C)cc2)nc1` [Compound 297, 6-(4-Isopropylphenoxy)-N-methylnicotinamide], the fold induction at 10 µM was in the range of 1.4 to 1.7.

For the compound `CCCc1ccc(Oc2ccc(C(=O)O)cc2F)cc1` [Compound 343, 3-fluoro-4-(4-propylphenoxy)benzoic acid], the fold induction at 10 µM fell in the range of 1.1 to 1.2. With `CCCCc1ccc(Oc2ccc(C(=O)O)cc2F)cc1` [Compound 344], the fold induction at 10 µM lay within 1.3 to 1.4. In the case of `O=C(O)c1ccc(Oc2ccc(C34CC5CC(CC(C5)C3)C4)cc2)c(F)c1` [Compound 363, 4-(4-((3r,5r,7r)-adamantan-1-yl)phenoxy)-3-fluorobenzoic acid], the fold induction at 10 µM lay within 1.2 to 1.3. On the same count and under the same terms, then `CCCc1ccc(Oc2ccc(C(=O)OCC)cc2F)cc1` [Compound 394, ethyl 3-fluoro-4-(4-propylphenoxy)benzoate], with 1.4 to 1.7; and `CCCCCc1ccc(Oc2ccc(C(=O)OCC)cc2F)cc1` [Compound 396, ethyl 3-fluoro-4-(4-pentylphenoxy)benzoate], with 1.2 to 1.3; and `CCC(C)(C)c1ccc(Oc2ncc(C(=O)OC)cc2F)cc1` [Compound 451, Methyl 5-fluoro-6-(4-(tert-pentyl)phenoxy)nicotinate], with 1.1 to 1.2. For `O=C(O)c1ccc(Oc2ccc(C3(C(F)(F)F)CC3)cc2)cc1` [Compound 703, 4-(4-(1-(Trifluoromethyl)cyclopropyl)phenoxy)benzoic acid], the fold induction at 10 µM was 1.1 to 1.2.

In the case of `O=C(O)c1ccc(Oc2ccc(C3(C(F)(F)F)CC3)cc2)nc1` [Compound 730, 6-(4-(1-(Trifluoromethyl)cyclopropyl)phenoxy)nicotinic acid], the fold induction at 10 µM was 1.1 to 1.2.
